Values of other authors in US20220001014A1 (priority 2020, published 2022).
Structures can show the parent of a compound that is named as a salt.

Legend:
ACE = ACE (Homo sapiens, UniProt P12821)
Neprilysin = Neprilysin (Homo sapiens, UniProt P08473)
Bradykinin B2 = biological target: T1, Bradykinin B2 (Homo sapiens, UniProt P30411); conditions: 18 μg/kg/h iv for 6 h; sodium-deplete normotensive and hypertensive subjects
T1 construct: host or cells: subjects in vivo (endogenous receptor)
T1 sequence (P30411 1-391): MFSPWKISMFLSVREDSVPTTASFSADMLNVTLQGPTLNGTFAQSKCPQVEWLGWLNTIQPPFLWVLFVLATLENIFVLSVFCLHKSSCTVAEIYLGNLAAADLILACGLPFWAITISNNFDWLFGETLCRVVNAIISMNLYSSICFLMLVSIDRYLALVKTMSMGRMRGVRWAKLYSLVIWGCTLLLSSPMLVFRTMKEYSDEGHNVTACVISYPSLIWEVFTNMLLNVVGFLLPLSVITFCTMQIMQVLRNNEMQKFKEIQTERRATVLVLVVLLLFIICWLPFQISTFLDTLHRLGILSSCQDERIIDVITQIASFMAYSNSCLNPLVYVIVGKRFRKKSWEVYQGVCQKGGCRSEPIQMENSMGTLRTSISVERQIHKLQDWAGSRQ

[1] = in vivo
SARS-CoV [2] = conditions: mice; dosed at concentrations similar to the clinically achievable concentration in humans; reduced from 100%
SARS-COV2 = conditions: recent in vitro studies
SARS-CoV [3] = conditions: lung epithelial cell lines
[4] = injection; LPS-induced acute lung injury

Sequence of ACE (P12821 30-1306, species assumed): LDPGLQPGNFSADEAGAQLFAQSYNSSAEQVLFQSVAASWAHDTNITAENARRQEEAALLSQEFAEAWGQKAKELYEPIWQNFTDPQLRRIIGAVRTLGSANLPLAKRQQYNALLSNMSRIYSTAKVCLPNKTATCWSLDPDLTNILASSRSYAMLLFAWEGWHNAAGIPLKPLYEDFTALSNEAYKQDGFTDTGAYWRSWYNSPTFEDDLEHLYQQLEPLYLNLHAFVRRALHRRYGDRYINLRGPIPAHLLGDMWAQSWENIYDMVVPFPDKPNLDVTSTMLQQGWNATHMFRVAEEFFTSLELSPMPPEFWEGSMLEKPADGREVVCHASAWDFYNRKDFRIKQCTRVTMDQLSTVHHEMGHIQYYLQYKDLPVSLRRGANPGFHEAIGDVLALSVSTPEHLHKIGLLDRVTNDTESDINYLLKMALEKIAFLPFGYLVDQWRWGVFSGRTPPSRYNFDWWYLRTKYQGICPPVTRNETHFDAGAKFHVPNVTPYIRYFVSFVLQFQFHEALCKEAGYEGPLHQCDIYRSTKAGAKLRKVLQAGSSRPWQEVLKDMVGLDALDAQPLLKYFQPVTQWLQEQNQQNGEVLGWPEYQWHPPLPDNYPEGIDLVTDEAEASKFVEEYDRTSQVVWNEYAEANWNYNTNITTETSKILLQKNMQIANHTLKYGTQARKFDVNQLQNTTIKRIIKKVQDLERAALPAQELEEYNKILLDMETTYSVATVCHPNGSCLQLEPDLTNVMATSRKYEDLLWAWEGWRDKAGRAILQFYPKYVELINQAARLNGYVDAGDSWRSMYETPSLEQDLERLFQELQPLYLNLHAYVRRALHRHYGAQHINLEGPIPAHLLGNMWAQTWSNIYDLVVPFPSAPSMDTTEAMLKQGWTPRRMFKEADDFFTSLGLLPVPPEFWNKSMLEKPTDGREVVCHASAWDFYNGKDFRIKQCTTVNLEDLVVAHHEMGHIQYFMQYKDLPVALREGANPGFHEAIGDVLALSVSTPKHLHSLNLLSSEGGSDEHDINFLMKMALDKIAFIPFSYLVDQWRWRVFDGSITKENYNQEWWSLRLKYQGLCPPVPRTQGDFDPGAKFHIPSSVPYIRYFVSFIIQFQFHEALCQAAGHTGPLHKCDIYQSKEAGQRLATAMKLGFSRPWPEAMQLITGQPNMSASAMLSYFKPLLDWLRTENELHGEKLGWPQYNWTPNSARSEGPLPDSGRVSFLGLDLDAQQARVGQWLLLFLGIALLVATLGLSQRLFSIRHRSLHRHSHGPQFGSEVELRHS
Sequence of Neprilysin (P08473 whole entry, species assumed): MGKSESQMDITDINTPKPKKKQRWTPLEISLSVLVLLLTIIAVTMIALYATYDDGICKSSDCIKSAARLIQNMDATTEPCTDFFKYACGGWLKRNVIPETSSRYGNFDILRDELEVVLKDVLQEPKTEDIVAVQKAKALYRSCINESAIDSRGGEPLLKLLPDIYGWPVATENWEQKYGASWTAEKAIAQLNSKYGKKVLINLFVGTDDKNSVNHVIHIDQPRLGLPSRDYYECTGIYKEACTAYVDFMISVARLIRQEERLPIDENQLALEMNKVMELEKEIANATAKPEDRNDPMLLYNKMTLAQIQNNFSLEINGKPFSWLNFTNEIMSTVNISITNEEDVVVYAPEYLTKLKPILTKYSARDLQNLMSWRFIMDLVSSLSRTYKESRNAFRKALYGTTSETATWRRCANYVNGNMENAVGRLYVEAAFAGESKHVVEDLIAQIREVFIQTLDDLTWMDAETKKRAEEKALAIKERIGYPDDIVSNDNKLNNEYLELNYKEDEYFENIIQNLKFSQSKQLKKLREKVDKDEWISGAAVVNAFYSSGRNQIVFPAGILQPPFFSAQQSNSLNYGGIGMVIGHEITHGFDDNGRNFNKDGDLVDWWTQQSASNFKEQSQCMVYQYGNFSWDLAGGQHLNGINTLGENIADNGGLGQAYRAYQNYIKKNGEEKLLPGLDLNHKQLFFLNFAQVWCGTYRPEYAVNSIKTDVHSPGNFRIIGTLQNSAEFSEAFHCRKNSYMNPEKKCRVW

CC(=O)SC[C@@H](Cc1ccccc1)C(=O)NCC(=O)OCc1ccccc1 [Ecadotril]
ACE inhibition (ACE): 23%
Neprilysin inhibition (Neprilysin): 99%

NC(N)=NCCC[C@@H](N)C(=O)N[C@@H](CCCN=C(N)N)C(=O)N1CCC[C@H]1C(=O)N1C[C@H](O)C[C@H]1C(=O)NCC(=O)N[C@@H](Cc1cccs1)C(=O)N[C@@H](CO)C(=O)N1Cc2ccccc2C[C@@H]1C(=O)N1[C@H](C(=O)N[C@@H](CCCN=C(N)N)C(=O)O)C[C@@H]2CCCC[C@@H]21 [Icatibant]
attenuation of hypotensive effects of acute or chronic valsartan (Bradykinin B2): did not attenuate

NCCCC[C@H](N[C@@H](CCc1ccccc1)C(=O)O)C(=O)N1CCC[C@H]1C(=O)O [Lisinopril]
ACE inhibition (ACE): 83%

O=C(N[C@H]1CCS[C@H]2CCC[C@@H](C(=O)O)N2C1=O)[C@@H](S)Cc1ccccc1 [Omapatrilat]
ACE inhibition (ACE): > 90%
Neprilysin inhibition (Neprilysin): 53%

Cn1c(=O)cc(N2CCC[C@@H](N)C2)n(Cc2ccccc2C#N)c1=O [alogliptin]
joint pains [1]: can cause severe joint pains

CN(C)C(=O)COC(=O)Cc1ccc(OC(=O)c2ccc(NC(=N)N)cc2)cc1 [camostat mesylate, Camostat mesylate]
mortality following SARS-CoV infection (SARS-CoV [2]): 30-35%
inhibition of SARS-COV2 viral entry (SARS-COV2): did not fully inhibit
entry of viruses into host cells (SARS-CoV [3]): left some residual entry of viruses

CC#CCn1c(N2CCC[C@@H](N)C2)nc2c1c(=O)n(Cc1nc(C)c3ccccc3n1)c(=O)n2C [linagliptin]
joint pains [1]: can cause severe joint pains

N[C@@H](CC(=O)N1CCn2c(nnc2C(F)(F)F)C1)Cc1cc(F)c(F)cc1F [sitagliptin]
joint pains [1]: can cause severe joint pains

rhACE2: rhACE2, injected in LPS-induced acute lung injury
lung injury and inflammation [4]: improved lung injury and inflammation
